{
  "source": "PubChem BioAssay AID588617",
  "about": "(The Scripps Research Institute Molecular Screening Center, 2011)",
  "target": "Krueppel-like factor 5 (Homo sapiens) (UniProt Q13887)",
  "sequence (Q13887 whole entry, looked up)": "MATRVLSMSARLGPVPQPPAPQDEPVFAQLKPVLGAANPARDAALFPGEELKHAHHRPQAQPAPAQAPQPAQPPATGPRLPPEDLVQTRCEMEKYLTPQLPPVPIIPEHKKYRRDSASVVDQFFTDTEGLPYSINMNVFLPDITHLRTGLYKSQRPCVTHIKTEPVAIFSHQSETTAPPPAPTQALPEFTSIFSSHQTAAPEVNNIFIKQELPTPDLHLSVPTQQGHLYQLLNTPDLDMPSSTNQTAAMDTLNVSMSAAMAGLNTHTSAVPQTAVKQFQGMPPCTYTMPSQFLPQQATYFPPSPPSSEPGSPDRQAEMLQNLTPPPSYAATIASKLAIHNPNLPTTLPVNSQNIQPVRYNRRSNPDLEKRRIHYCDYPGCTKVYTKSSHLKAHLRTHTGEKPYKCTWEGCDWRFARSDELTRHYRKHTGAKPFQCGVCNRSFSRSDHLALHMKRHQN",
  "test": "change in KLF5 protein levels, late-stage follow-up, counter-screen for KLF5 inhibitor project, western blot, chemiluminescence, DLD-1 cells (AID 588617)",
  "settings": "24 h, at 10 µM, hits give high values",
  "data": [
    {"smiles": "CN(C(=O)COC(=O)/C=C/c1cccc([N+](=O)[O-])c1)C1CCS(=O)(=O)C1", "note": "(stereo unspecified)", "values": [
      {"measurement": "inhibition", "result": 30.1, "unit": "%"}
    ]}
  ]
}
